The values below come from ChEMBL document CHEMBL5356979, “Synthesis, antibiofilm activity and molecular docking of N-acylhomoserine lactones containing cinammic moieties” (Bioorg Med Chem Lett, 2024).

By inhibition is commonly meant the drop in the measured response relative to a control, in per cent.

Calls of active or inactive are those of the source. The rule behind the calls is not given here.

The nature of data set [1]: Inhibition of quorum sensing system in Chromobacterium violaceum assessed as inhibition of violacein secretion by measuring inhibition halo at 100 uM.
Data set [2] concerns Staphylococcus aureus. Kind of data set: Antibiofilm activity against Staphylococcus aureus assessed as inhibition of biofilm formation at 50 uM incubated for 24 hrs by crystal violet staining based analysis relative to control. Type of data set: functional.
Data set [3] deals with Klebsiella pneumoniae. Kind of data set: Antibacterial activity against Klebsiella pneumoniae assessed as inhibition of bacterial growth at 50 uM incubated for 24 hrs by microdilution method. Type of data set: functional, organism-based.
The subject of data set [4] is Staphylococcus aureus. Nature of the data set: Antibacterial activity against Staphylococcus aureus assessed as inhibition of bacterial growth at 50 uM incubated for 24 hrs by microdilution method. The format is functional, organism-based. Background: In broth dilution the organism is exposed to a series of concentrations in liquid medium.
Data set [5] has as its system Pseudomonas aeruginosa. Kind of data set: Antibacterial activity against Pseudomonas aeruginosa assessed as inhibition of bacterial growth at 50 uM incubated for 24 hrs by microdilution method. Type of data set: functional, organism-based.
The nature of data set [6]: Inhibition of quorum sensing system in Chromobacterium violaceum assessed as inhibition of violacein secretion by measuring inhibition halo at 50 uM.
The nature of data set [7]: Cytotoxicity against green monkey COS-7 cells assessed as inhibition of cell growth at 100 uM relative to control. The format is toxicity, cell-based. The settings on record: chlorocebus aethiops.
Data set [8] has as its system Klebsiella pneumoniae. Nature of the data set: Antibiofilm activity against Klebsiella pneumoniae assessed as inhibition of biofilm formation at 50 uM incubated for 24 hrs by crystal violet staining based analysis relative to control. The format is functional.
For data set [9], the system named is Pseudomonas aeruginosa. Nature of the data set: Antibiofilm activity against Pseudomonas aeruginosa assessed as inhibition of biofilm formation at 50 uM incubated for 24 hrs by crystal violet staining based analysis relative to control. Type of data set: functional.
Data set [10] can be described thus: Aqueous solubility of compound. The settings on record: buffer. Type of data set: physicochemical.
The subject of data set [11] is Rhodopseudomonas palustris. Nature of the data set: Antibiofilm activity against Rhodopseudomonas palustris assessed as inhibition of biofilm formation at 1 uM relative to control. Type of data set: functional.

Take `COc1cc(/C=C/C(=O)N[C@H]2CCOC2=O)cc(OC)c1OC`: the inhibition zone (IZ) in data set [1] was 3.7 mm; in data set [6], 2.7 mm. The figures for the inhibition at 50 µM in data set [2], in data set [8] and in data set [9] were 37.1%, 0% and 26.9%, respectively. Also, the outcome in [3], in data set [4] and in [5] was inactive. The inhibition at 100 µM in data set [7] came to 3.2%.

In the case of `Cc1ccc(/C=C/C(=O)N[C@H]2CCOC2=O)cc1`, the inhibition zone (IZ) was found to be 2 mm in data set [1] and 1.3 mm in data set [6]. Besides, the inhibition at 50 µM was 4.4% in [2], 16.9% in data set [8] and 29.8% in data set [9]. For the same compound, the outcome in data set [3], in [4] and in data set [5] was inactive.

`O=C(/C=C/c1ccc(-c2ccccc2)cc1)N[C@H]1CCOC1=O`: the results for the inhibition at 50 µM in [2], in [8] and in data set [9] were 8.4%, 0% and 0%, respectively. Further, the outcome in data set [3], in data set [4] and in data set [5] was inactive. In data set [10], the solubility result was “Insoluble”.

As to `O=C1C=C(Br)/C(=C/Br)O1`, the inhibition zone (IZ) in data set [1] was found to be 5.1 mm; in data set [6], 1.3 mm. Moreover, the inhibition at 50 µM in data set [2] stood at 10.1%; in data set [8] it was 8.4%; in data set [9] it was 40.2%.

For the compound `O=C(/C=C/c1ccccc1)N[C@H]1CCOC1=O`, the results for the inhibition zone (IZ) in data set [1] and in data set [6] were 0.6 mm and 1.3 mm, respectively. Besides, the inhibition at 50 µM came out at 18% in [2], 0% in data set [8] and 29.1% in data set [9]. Besides, the outcome in [3], in data set [4] and in [5] was inactive.

On to `CC(C)=CCC/C(C)=C/C(=O)N[C@H]1CCOC1=O`, for which the figures for the inhibition at 50 µM in data set [2], in data set [8] and in data set [9] were 26.5%, 24.5% and 25.3%, respectively. In addition, the outcome in [3], in [4] and in data set [5] was inactive.

Turning to `O=C(/C=C/c1ccco1)N[C@H]1CCOC1=O`, the figures for the inhibition at 50 µM in data set [2], in data set [8] and in data set [9] were 18.2%, 0% and 24.3%, respectively. The outcome in data set [3], in data set [4] and in data set [5] was inactive.

Take `O=C(/C=C/c1ccc2c(c1)OCO2)N[C@H]1CCOC1=O`: the inhibition at 50 µM is 5% in data set [2], 27.1% in data set [8] and 0% in [9]. Besides, the result in [3], in [4] and in data set [5] was inactive. In addition, the solubility result in data set [10] is “Insoluble”.

Turning to `Cn1c(/C=C/C(=O)N[C@H]2CCOC2=O)cc2ccccc21`, the figures for the inhibition at 50 µM in data set [2], in data set [8] and in data set [9] were 0.5%, 0% and 0%, respectively. Moreover, the result in data set [3], in [4] and in data set [5] was inactive. The solubility result in [10] is “Insoluble”.

With `COc1ccc(/C=C/C(=O)N[C@H]2CCOC2=O)cc1`, the figures for the inhibition zone (IZ) in data set [1] and in [6] were 0.3 mm and 0.6 mm, respectively. The inhibition at 50 µM is 8.49% in data set [2], 12% in [8] and 35.9% in data set [9]. The result in [3], in data set [4] and in data set [5] was inactive.

Consider `O=C(/C=C/C=C/c1ccccc1)N[C@H]1CCOC1=O`, for which the figures for the inhibition zone (IZ) in data set [1] and in [6] were 2.7 mm and 2.2 mm, respectively. Besides, the results for the inhibition at 50 µM in data set [2], in data set [8] and in [9] were 14%, 28.3% and 30.2%, respectively. In addition, the result in data set [3], in [4] and in [5] was inactive. Further, the inhibition at 100 µM in data set [7] was 0%.

As to `COc1cccc(/C=C/C(=O)N[C@H]2CCOC2=O)c1`, the inhibition at 50 µM in data set [2] was determined as 27.3%; in [8], 22.3%; in data set [9], 0%. For the same compound, the outcome in data set [3], in [4] and in data set [5] was inactive. Further, the solubility entry in [10] is listed as “Insoluble”.

Take `Cn1cccc1/C=C/C(=O)N[C@H]1CCOC1=O`: the inhibition at 50 µM in [2], in data set [8] and in [9] was 0% each time. Besides, the result in data set [3], in data set [4] and in data set [5] was inactive. Moreover, the solubility result in data set [10] is given as “Insoluble”.

For `O=C(/C=C/c1ccc(F)cc1)N[C@H]1CCOC1=O`, the inhibition at 50 µM is 0% in data set [2], 0% in [8] and 20.3% in data set [9]. Moreover, the result in data set [3], in data set [4] and in [5] was inactive.

In the case of `O=C(/C=C/c1cccnc1)N[C@H]1CCOC1=O`, the inhibition at 50 µM in data set [2] came out at 0%; in [8], 0%; in [9], 14.2%. Moreover, the outcome in data set [3], in data set [4] and in [5] was inactive.

Consider `O=C(/C=C/c1ccc(C(F)(F)F)cc1)N[C@H]1CCOC1=O`, for which the results for the inhibition at 50 µM in [2], in [8] and in [9] were 2.2%, 30.2% and 0%, respectively. Besides, the outcome in data set [3], in [4] and in data set [5] was inactive.

Regarding `CC(C)c1ccc(/C=C/C(=O)N[C@H]2CCOC2=O)cc1`, the inhibition at 50 µM in data set [2] came out at 16.1%; in [8], 17.9%; in [9] it was 23.7%. Also, the result in data set [3], in [4] and in [5] was inactive.

`O=C(/C=C/c1ccc(Cl)cc1)N[C@H]1CCOC1=O`: in data set [11], the inhibition at 1 µM was 30%. Besides, the results for the inhibition at 50 µM in data set [2], in data set [8] and in data set [9] were 12%, 0% and 23.7%, respectively. Moreover, the result in [3], in data set [4] and in data set [5] was inactive.

For `O=C(/C=C/c1cccc(F)c1)N[C@H]1CCOC1=O`, the inhibition at 50 µM in data set [2], in data set [8] and in [9] was 0% throughout. Moreover, the result in [3], in data set [4] and in data set [5] was inactive. For the same compound, the solubility result in data set [10] is on record as “Insoluble”.

For the compound `O=C(/C=C/c1cccs1)N[C@H]1CCOC1=O`, the inhibition at 50 µM in data set [2] stood at 15.3%; in [8], 12.6%; in data set [9], 19.6%. Also, the result in data set [3], in [4] and in data set [5] was inactive.
